The values below come from patent publication US6342261B1, “Method of preserving foods using noble gases” (American Air Liquide, priority 1992, dated 2002).

Each structure is given as a SMILES string. “And” between values parts separate entries of the source, which are not always exact repeats. Equal entries are not always repeated.

The target in assay [1] is Glucose oxidase EC 1.1.3.4 (Aspergillus niger, UniProt P13006). Briefly: Enzyme activity under gas: glucose oxidase. The class given is biochemical. As for the experimental part: (§1) Sealed cuvettes containing enzymes representative of and in fact important in food product degradation processes were thoroughly purged and filled with assay gases. Injection of gassed substrate solutions started the reactions, which were generally conducted under optimal conditions. These were monitored […] by scanning uv/vis spectrophotometry. All controls were conducted for oxygen, nitrogen and carbon dioxide. A range of temperatures and pressures were employed. An example protocol is appended. Results were expressed in real-time, and transformed to calculate yield and rate differences for the reaction. Over 50 exemplary enzymes were so assayed. Enzymes selected for examination from various products are assayed in precisely the same manner, but always in terms of relative activity in comparison with that product in air or another control gas or gas mixture.
(§2) The follwing Table summarizes the maximum inhibition of enzymes activity realized with various noble gases under various storage conditions.

A further assay relates to Yeasts. Briefly: Total microorganisms from product trials: yeasts. Type of assay: cell-based. As for the experimental part: (§3) Many different products were assayed under a wide variety of temperatures and pressures, packaging treatments, and post-packaging handling. In the general experiment, sterile pouches of impermeable film were filled with freshly-obtained food products under recommended handling regimes. Each was then purged thoroughly with the gas mixture to be tested. Then sealed, the pouch was further treated by cooking, cold storage, or other parameter, or else was not. The sealed pouch was stored at room, cold, or freezing temperature, and periodically sampled for microorganism counts (total, aerobic, anaerobic, Pseudomonas, Lactobacilli). It was also studied for observable deterioration and scored. Some samples were subjected to appropriate chemical analysis. Others were sampled for specific enzyme activities as above. All told, the average experiment consisted of replicate samples of product being assayed for microbial counts, microbial identifications, enyzme activities, chemical oxidation, discoloration, odor and/or taste changes, and final carbon dioxide and oxygen concentrations. Microbes and enzymes known to be important in the degradation of each individual product were selected for examination and scoring from the literature.

Assay [2] has as its system Class V. Isomerases (EC 5). Briefly: Enzyme activity under gas: Class V isomerases (enzyme not named). The class given is biochemical. As for the experimental part: as §1, §2
For assay [3], the system named is Aspartate aminotransferase (EC 2.6.1.1). The experiment in a line: Enzyme activity under gas: aspartate aminotransferase. The class given is biochemical. Here is the method: as §1, §2
The test system of a further assay is Molds. The experiment in a line: Total microorganisms from product trials: molds. The class given is cell-based. Here is the method:
as §3

The next assay deals with Anaerobes. The experiment in a line: Total microorganisms from product trials: anaerobes. Type of assay: cell-based. As for the experimental part: as §3
In a further assay the test system is Tyrosinase EC 1.14.18.1. Briefly: Enzyme activity under gas: tyrosinase. The class given is biochemical. As to conditions: 25°, optimal reaction conditions, simple saturation of solution with gas. As for the experimental part:
as §1, §2
at 25° and optimal reaction conditions, simple saturation of solution with gas: […]

Assay [4] deals with Acetyl-CoA synthetase EC 6.2.1.1. Briefly: Enzyme activity under gas: acetyl-CoA synthetase. Type of assay: biochemical. As for the experimental part:
as §1, §2

Assay [5] deals with Gamma-glutamyl transpeptidase EC 2.3.2.2 (Homo sapiens, UniProt P19440). The experiment in a line: Enzyme activity under gas: gamma-glutamyl transpeptidase. Type of assay: biochemical. As for the experimental part:
as §1, §2

Another assay relates to Aerobes. Briefly: Total microorganisms from product trials: aerobes. The class given is cell-based. As for the experimental part:
as §3

The test system of another assay is Lipase EC 3.1.1.3. Briefly: Enzyme activity under gas: lipase. The class given is biochemical. As for the experimental part: as §1, §2
The next assay concerns Yeasts and molds. The experiment in a line: Yeast and mold growth on bread and pasta under gases. Type of assay: cell-based. Here is the method: as §3, with “concentrations.” for “concentrations. Microbes and enzymes known to be important in the degradation of each individual product were selected for examination and scoring from the literature.”
A short description of assay [6]: Chemical oxidation reactions of food components under gases. As to conditions: even in the presence of oxygen; pigments, phenolics, ascorbic acid of the product section. The source says: Other oxygenated species, such as carbon dioxide are reactively destructive.
That is, in accordance with the present invention, it has been discovered that certain gases can directly affect the oxidation rate of chemicals and not merely slow oxidation only as function of physical and inert displacement of oxygen. Generally, the present invention is effected by contacting the chemicals or chemical preparations during at least a protion of storage thereof to a noble gas, a mixture of noble gases or a gaseous mixture containing at least one noble gas.

For another assay, the target named is Phosphoglucose isomerase (Homo sapiens, UniProt P06744). The experiment in a line: Enzyme activity under gas: phosphoglucose isomerase. The class given is biochemical. As for the experimental part: as §1, §2

Chain of Glucose oxidase EC 1.1.3.4 (P13006 17-605): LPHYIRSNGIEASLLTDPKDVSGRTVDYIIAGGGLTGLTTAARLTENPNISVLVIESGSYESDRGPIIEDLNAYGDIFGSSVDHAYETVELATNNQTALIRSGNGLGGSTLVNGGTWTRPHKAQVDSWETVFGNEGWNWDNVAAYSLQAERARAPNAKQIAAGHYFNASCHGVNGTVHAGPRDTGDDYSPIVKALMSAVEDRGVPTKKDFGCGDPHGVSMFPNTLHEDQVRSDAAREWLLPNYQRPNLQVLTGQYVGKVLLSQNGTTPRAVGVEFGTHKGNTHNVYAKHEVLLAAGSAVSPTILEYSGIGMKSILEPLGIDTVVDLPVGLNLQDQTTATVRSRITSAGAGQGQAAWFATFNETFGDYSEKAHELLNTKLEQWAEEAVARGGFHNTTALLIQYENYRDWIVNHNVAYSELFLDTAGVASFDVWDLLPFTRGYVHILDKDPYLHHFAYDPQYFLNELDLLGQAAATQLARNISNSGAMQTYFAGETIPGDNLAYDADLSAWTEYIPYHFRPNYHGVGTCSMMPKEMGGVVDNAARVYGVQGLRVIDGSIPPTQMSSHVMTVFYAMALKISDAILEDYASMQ
Chain of Gamma-glutamyl transpeptidase EC 2.3.2.2 (P19440 whole entry): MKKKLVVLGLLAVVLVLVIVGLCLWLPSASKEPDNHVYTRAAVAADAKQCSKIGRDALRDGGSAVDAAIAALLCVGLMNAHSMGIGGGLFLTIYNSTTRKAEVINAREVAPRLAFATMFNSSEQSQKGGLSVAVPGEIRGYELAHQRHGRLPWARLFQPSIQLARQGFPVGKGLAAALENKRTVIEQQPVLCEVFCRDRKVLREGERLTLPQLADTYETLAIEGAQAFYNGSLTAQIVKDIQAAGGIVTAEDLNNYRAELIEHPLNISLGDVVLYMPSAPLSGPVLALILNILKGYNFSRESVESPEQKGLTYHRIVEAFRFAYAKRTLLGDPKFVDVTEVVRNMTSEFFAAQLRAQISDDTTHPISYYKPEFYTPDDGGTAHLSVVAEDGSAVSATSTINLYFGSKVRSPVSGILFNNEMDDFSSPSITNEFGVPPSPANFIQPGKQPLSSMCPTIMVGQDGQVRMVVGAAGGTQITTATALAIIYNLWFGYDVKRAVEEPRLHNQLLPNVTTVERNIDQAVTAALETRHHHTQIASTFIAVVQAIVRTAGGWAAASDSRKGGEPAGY

Consider `[Ar]` [Ar, argon], for which the “Result (inhibition), maximum inhibition of enzyme activity” value (“Result (inhibition), maximum inhibition” for short) in assay [1] is −85.8%; in assay [3], −17%; in assay [5], −5%. Further, the “% Inhibition Compared to 100% Air” value came to 49% with Yeasts (Carrots); 35% in the assay with Yeasts (Fish Fillets); 20% in the assay on Yeasts (Green Beans, Refrigerated); 10% with Yeasts (Green Beans, Room Temperature); 28% in the assay on Yeasts (Ground Beef); 28% with Yeasts (Lettuce). In addition, the “% Inhibition Compared to 100% Air” value with Yeasts (Mixed Salad (Chef Salad)) was found to be 47%; with Yeasts (Shrimp) it was 2%; with Yeasts (Smelt), 17%; with Yeasts (Steaks), 16%; in the assay with Yeasts (Strawberries), 12%; with Yeasts (Tomatoes), 38%. For the same compound, the “% Inhibition Compared to 100% Air” value with Molds (Carrots) turned out to be 20%; with Molds (Fish Fillets), 15%; with Molds (Green Beans, Refrigerated) it was 25%; in the assay on Molds (Green Beans, Room Temperature), 15%; in the assay on Molds (Ground Beef) it was 4%; in the assay with Molds (Lettuce) it was 4%. The “% Inhibition Compared to 100% Air” value amounted to 2% with Molds (Mixed Salad (Chef Salad)); 5% in the assay on Molds (Shrimp); 22% with Molds (Smelt); 27% in the assay with Molds (Steaks); 80% in the assay on Molds (Strawberries); 51% in the assay with Molds (Tomatoes). The “% Inhibition Compared to 100% Air” value was 16% in the assay on Anaerobes (Lettuce); 33% in the assay with Aerobes (Carrots); 13% in the assay with Aerobes (Fish Fillets); 11% with Aerobes (Green Beans, Refrigerated); 2% with Aerobes (Green Beans, Room Temperature); 0.4% in the assay on Aerobes (Ground Beef). Further, the “% Inhibition Compared to 100% Air” value in the assay on Aerobes (Lettuce) came out at 0.4%; in the assay on Aerobes (Mixed Salad (Chef Salad)), 12%; in the assay with Aerobes (Shrimp) it was 1%; with Aerobes (Steaks), 13%; in the assay on Aerobes (Strawberries), 40%; in the assay with Aerobes (Tomatoes) it was 96%. The “Result, Class V isomerases” value in assay [2] is −37%. Besides, the “% Inhibition Compared to 100% CO2” value in the assay with Anaerobes (Carrots) is 9%; in the assay with Anaerobes (Fish Fillets), 2%; in the assay with Anaerobes (Green Beans, Refrigerated) it was 61%; with Anaerobes (Ground Beef) it was 16%; with Anaerobes (Mixed Salad (Chef Salad)), 6% and 1%; with Anaerobes (Shrimp) it was 4%. For the same compound, the “% Inhibition Compared to 100% CO2” value in the assay on Anaerobes (Smelt) was 30%; with Anaerobes (Steaks), 6%; with Anaerobes (Tomatoes), 22%. For the same compound, the “Result (inhibition vs air), maximum inhibition of enzyme activity” value (from here on “Result (inhibition vs air)”) with Tyrosinase EC 1.14.18.1 is reported as −60%. Moreover, in [4], the Result is −75%. Moreover, the “Result, With Lipase” value in the assay with Lipase EC 3.1.1.3 is on record as −18%. Moreover, the “inhibition (up to)” value in the assay on Lipase EC 3.1.1.3 is “up to −20%”.
In the case of `O=C=O` [CO2, carbon dioxide, reference compound], the “% Inhibition Compared to 100% Air” value in the assay with Yeasts (Carrots) was found to be 35%; in the assay on Yeasts (Fish Fillets), 36%; with Yeasts (Green Beans, Refrigerated), 55%; with Yeasts (Green Beans, Room Temperature), 19%; in the assay with Yeasts (Ground Beef), 4%; in the assay with Yeasts (Lettuce), 4%. Also, the “% Inhibition Compared to 100% Air” value in the assay with Yeasts (Mixed Salad (Chef Salad)) is 63%; with Yeasts (Shrimp), 8%; in the assay with Yeasts (Smelt), 0.8%; in the assay on Yeasts (Steaks), 15%; with Yeasts (Strawberries), 32%; with Yeasts (Tomatoes), 80%. The “% Inhibition Compared to 100% Air” value is reported as 3% in the assay with Molds (Carrots); 18% in the assay on Molds (Fish Fillets); 2% with Molds (Green Beans, Refrigerated); 3% in the assay with Molds (Green Beans, Room Temperature); 2% in the assay on Molds (Ground Beef); 2% in the assay with Molds (Lettuce). Further, the “% Inhibition Compared to 100% Air” value is on record as 4% with Molds (Mixed Salad (Chef Salad)); 2% in the assay on Molds (Shrimp); 29% with Molds (Smelt); 17% with Molds (Steaks); 100% with Molds (Strawberries); 62% in the assay with Molds (Tomatoes). The “% Inhibition Compared to 100% Air” value in the assay on Aerobes (Carrots) turned out to be 24%; with Aerobes (Fish Fillets) it was 14%; with Aerobes (Green Beans, Refrigerated), 26%; with Aerobes (Green Beans, Room Temperature) it was 10%; in the assay with Aerobes (Ground Beef) it was 9%; in the assay on Aerobes (Lettuce), 9%. The “% Inhibition Compared to 100% Air” value in the assay on Aerobes (Mixed Salad (Chef Salad)) amounted to 2%; in the assay on Aerobes (Shrimp), 4%; in the assay with Aerobes (Steaks), 21%; in the assay on Aerobes (Strawberries), 48%; in the assay on Aerobes (Tomatoes) it was 92%. Besides, the “depression of yeasts and molds with respect to nitrogen or air” value in the assay with Yeasts and molds (Bread) was “may be superior”; in the assay with Yeasts and molds (Pasta) it was “may be superior”. Besides, the “Result (inhibition vs air)” value in the assay with Tyrosinase EC 1.14.18.1 stood at 0%.
On to `N#N` [Gas N2, nitrogen, reference compound], for which the “inhibition of chemical oxidation, order of effect of the gases” value in [6] is “has no such ability”. For the same compound, the “Result (inhibition vs air)” value with Tyrosinase EC 1.14.18.1 came to 0%.
For `[Kr]` [Kr, krypton], the entries for the “Result (inhibition), maximum inhibition” value in assay [1], in [3] and in assay [5] were −92.7%, −82% and −8%, respectively. In addition, in the assay on Tyrosinase EC 1.14.18.1, the “Result (inhibition vs air)” value is −73%. The Result in assay [4] is listed as −16%. In addition, the “Result, With Lipase” value in the assay with Lipase EC 3.1.1.3 is on record as −25%.
As to `[Ne]` [Ne, neon], the “Result (inhibition), maximum inhibition” value is −61.7% in assay [1], −12% in assay [3] and −3% in assay [5]. For the same compound, the Result is given as −45% on Phosphoglucose isomerase and −15% in [4]. In the assay with Tyrosinase EC 1.14.18.1, the “Result (inhibition vs air)” value is reported as −46.7%. Besides, in the assay on Lipase EC 3.1.1.3, the “Result, With Lipase” value is reported as −15%.
`[Xe]` [Xe, xenon]: the figures for the “Result (inhibition), maximum inhibition” value in [1], in [3] and in assay [5] were −91.6% (inhibition), −17% (inhibition) and −7% (inhibition), respectively. In addition, the Result is given as −61% on Phosphoglucose isomerase and −18% in assay [4]. In addition, the “Result, With Lipase” value in the assay with Lipase EC 3.1.1.3 is reported as −25.6%.
